Legend:
Type in all cases: functional
Homo sapiens [1] = organism: Homo sapiens; assay: Mitogen-induced human lymphocyte proliferation measured by incorporation of [3H]thymidine in lymphocytes with Pokeweed mitogen at a concentration of 1/1250 microg with compound at 0.1 uM
Homo sapiens [2] = organism: Homo sapiens; assay: Mitogen-induced human lymphocyte proliferation measured by incorporation of [3H]thymidine in lymphocytes with Pokeweed mitogen at a concentration of 1/1250 microg with compound at 10 uM
Homo sapiens [3] = organism: Homo sapiens; assay: Mitogen-induced human lymphocyte proliferation measured by incorporation of [3H]thymidine in lymphocytes with Pokeweed mitogen at a concentration of 1/1250 microg with compound at 1 uM
Homo sapiens [4] = organism: Homo sapiens; assay: Mitogen-induced human lymphocyte proliferation measured by incorporation of [3H]thymidine in lymphocytes with Pokeweed mitogen at a concentration of 1/1250 microg with compound at 400 uM
Homo sapiens [5] = organism: Homo sapiens; assay: Mitogen-induced human lymphocyte proliferation measured by incorporation of [3H]thymidine in lymphocytes with Pokeweed mitogen at a concentration of 1/1250 microg with compound at 50 uM
Homo sapiens [6] = organism: Homo sapiens; assay: Mitogen-induced human lymphocyte proliferation measured by incorporation of [3H]-thymidine in lymphocytes with Pokeweed mitogen at a concentration of 1/1250 microg with out compound
Homo sapiens [7] = organism: Homo sapiens; assay: Mitogen-induced human lymphocyte proliferation measured by incorporation of [3H]thymidine in lymphocytes with Pokeweed mitogen at a concentration of 1/5000 microg with compound at 0.1 uM
Homo sapiens [8] = organism: Homo sapiens; assay: Mitogen-induced human lymphocyte proliferation measured by incorporation of [3H]thymidine in lymphocytes with Pokeweed mitogen at a concentration of 1/5000 microg with compound at 10 uM
Homo sapiens [9] = organism: Homo sapiens; assay: Mitogen-induced human lymphocyte proliferation measured by incorporation of [3H]thymidine in lymphocytes with Pokeweed mitogen at a concentration of 1/5000 microg with compound at 1 uM
Homo sapiens [10] = organism: Homo sapiens; assay: Mitogen-induced human lymphocyte proliferation measured by incorporation of [3H]thymidine in lymphocytes with Pokeweed mitogen at a concentration of 1/5000 microg with compound at 400 uM
Homo sapiens [11] = organism: Homo sapiens; assay: Mitogen-induced human lymphocyte proliferation measured by incorporation of [3H]thymidine in lymphocytes with Pokeweed mitogen at a concentration of 1/5000 microg with compound at 50 uM
Homo sapiens [12] = organism: Homo sapiens; assay: Mitogen-induced human lymphocyte proliferation measured by incorporation of [3H]thymidine in lymphocytes with Pokeweed mitogen at a concentration of 1/5000 microg with out compound
Homo sapiens [13] = organism: Homo sapiens; assay: Mitogen-induced human lymphocyte proliferation measured by incorporation of [3H]thymidine in lymphocytes with Phytohemagglutininin at a concentration of 1 ug with compound at 0.1 uM
Homo sapiens [14] = organism: Homo sapiens; assay: Mitogen-induced human lymphocyte proliferation measured by incorporation of [3H]thymidine in lymphocytes with Phytohemagglutininin at a concentration of 1 ug with compound at 10 uM
Homo sapiens [15] = organism: Homo sapiens; assay: Mitogen-induced human lymphocyte proliferation measured by incorporation of [3H]thymidine in lymphocytes with Phytohemagglutininin at a concentration of 1 ug with compound at 1 uM
Homo sapiens [16] = organism: Homo sapiens; assay: Mitogen-induced human lymphocyte proliferation measured by incorporation of [3H]thymidine in lymphocytes with Phytohemagglutininin at a concentration of 1 ug with compound at 400 uM
Homo sapiens [17] = organism: Homo sapiens; assay: Mitogen-induced human lymphocyte proliferation measured by incorporation of [3H]thymidine in lymphocytes with Phytohemagglutininin at a concentration of 1 ug with compound at 50 uM
Homo sapiens [18] = organism: Homo sapiens; assay: Mitogen-induced human lymphocyte proliferation measured by incorporation of [3H]thymidine in lymphocytes with Phytohemagglutininin at a concentration of 1 ug with out compound
Homo sapiens [19] = organism: Homo sapiens; assay: Mitogen-induced human lymphocyte proliferation measured by incorporation of [3H]thymidine in lymphocytes with Concanavalin A (Con A) at a concentration of 0.25 microg with compound at 1 uM
Homo sapiens [20] = organism: Homo sapiens; assay: Mitogen-induced human lymphocyte proliferation measured by incorporation of [3H]thymidine in lymphocytes with Concanavalin A (Con A) at a concentration of 0.25 microg with out compound
Homo sapiens [21] = organism: Homo sapiens; assay: Mitogen-induced human lymphocyte proliferation measured by incorporation of [3H]thymidine in lymphocytes with Concanavalin A at a concentration of 0.25 microg with compound at 400 uM
Homo sapiens [22] = organism: Homo sapiens; assay: Mitogen-induced human lymphocyte proliferation measured by incorporation of [3H]thymidine in lymphocytes with Phytohemagglutininin at a concentration of 0.125 microg with compound at 0.1 uM
Homo sapiens [23] = organism: Homo sapiens; assay: Mitogen-induced human lymphocyte proliferation measured by incorporation of [3H]thymidine in lymphocytes with Phytohemagglutininin at a concentration of 0.125 microg with compound at 10 uM
Homo sapiens [24] = organism: Homo sapiens; assay: Mitogen-induced human lymphocyte proliferation measured by incorporation of [3H]thymidine in lymphocytes with Phytohemagglutininin at a concentration of 0.125 microg with compound at 1 uM
Homo sapiens [25] = organism: Homo sapiens; assay: Mitogen-induced human lymphocyte proliferation measured by incorporation of [3H]thymidine in lymphocytes with Phytohemagglutininin at a concentration of 0.125 microg with compound at 400 uM
Homo sapiens [26] = organism: Homo sapiens; assay: Mitogen-induced human lymphocyte proliferation measured by incorporation of [3H]thymidine in lymphocytes with Phytohemagglutininin at a concentration of 0.125 microg with compound at 50 uM
Homo sapiens [27] = organism: Homo sapiens; assay: Mitogen-induced human lymphocyte proliferation measured by incorporation of [3H]thymidine in lymphocytes with Phytohemagglutininin at a concentration of 0.125 microg with out compound
Homo sapiens [28] = organism: Homo sapiens; assay: Mitogen-induced human lymphocyte proliferation measured by incorporation of [3H]thymidine in lymphocytes with Concanavalin A (Con A) at a concentration of 0.25 microg with compound at 0.1 uM
Homo sapiens [29] = organism: Homo sapiens; assay: Mitogen-induced human lymphocyte proliferation measured by incorporation of [3H]thymidine in lymphocytes with Concanavalin A (Con A) at a concentration of 0.25 microg with compound at 10 uM
Homo sapiens [30] = organism: Homo sapiens; assay: Mitogen-induced human lymphocyte proliferation measured by incorporation of [3H]thymidine in lymphocytes with Concanavalin A (Con A) at a concentration of 0.25 microg with compound at 50 uM
Homo sapiens [31] = organism: Homo sapiens; assay: Mitogen-induced human lymphocyte proliferation measured by incorporation of [3H]thymidine in lymphocytes with Phytohemagglutininin at a concentration of 0.25 ug with out compound
Homo sapiens [32] = organism: Homo sapiens; assay: Mitogen-induced human lymphocyte proliferation measured by incorporation of [3H]-thymidine in lymphocytes with Phytohemagglutininin at a concentration of 1 ug with compound at 10 uM
Homo sapiens [33] = organism: Homo sapiens; assay: Mitogen-induced human lymphocyte proliferation measured by incorporation of [3H]thymidine in lymphocytes with Pokeweed mitogen at a concentration of 1/1250 ug with compound at 0.1 uM
Homo sapiens [34] = organism: Homo sapiens; assay: Mitogen-induced human lymphocyte proliferation measured by incorporation of [3H]thymidine in lymphocytes with Pokeweed mitogen at a concentration of 1/1250 ug with compound at 10 uM
Homo sapiens [35] = organism: Homo sapiens; assay: Mitogen-induced human lymphocyte proliferation measured by incorporation of [3H]thymidine in lymphocytes with Pokeweed mitogen at a concentration of 1/1250 ug with compound at 1 uM
Homo sapiens [36] = organism: Homo sapiens; assay: Mitogen-induced human lymphocyte proliferation measured by incorporation of [3H]thymidine in lymphocytes with Pokeweed mitogen at a concentration of 1/1250 ug with out compound
Homo sapiens [37] = organism: Homo sapiens; assay: Mitogen-induced human lymphocyte proliferation measured by incorporation of [3H]thymidine in lymphocytes with Pokeweed mitogen at a concentration of 1/1250 ug with compound at 50 uM
Homo sapiens [38] = organism: Homo sapiens; assay: Mitogen-induced human lymphocyte proliferation measured by incorporation of [3H]thymidine in lymphocytes with Pokeweed mitogen at a concentration of 1/1250 ug with compound at 400 uM
Homo sapiens [39] = organism: Homo sapiens; assay: Mitogen-induced human lymphocyte proliferation measured by incorporation of [3H]thymidine in lymphocytes with Concanavalin A (Con A) at a concentration of 0.5 ug with compound at 0.1 uM
Homo sapiens [40] = organism: Homo sapiens; assay: Mitogen-induced human lymphocyte proliferation measured by incorporation of [3H]-thymidine in lymphocytes with Concanavalin A (Con A) at a concentration of 0.5 ug with compound at 1 uM
Homo sapiens [41] = organism: Homo sapiens; assay: Mitogen-induced human lymphocyte proliferation measured by incorporation of [3H]thymidine in lymphocytes with Concanavalin A (Con A) at a concentration of 0.5 ug with out compound
Homo sapiens [42] = organism: Homo sapiens; assay: Mitogen-induced human lymphocyte proliferation measured by incorporation of [3H]thymidine in lymphocytes with Concanavalin A (Con A) at a concentration of 0.5 ug with compound at 10 uM
Homo sapiens [43] = organism: Homo sapiens; assay: Mitogen-induced human lymphocyte proliferation measured by incorporation of [3H]thymidine in lymphocytes with Concanavalin A (Con A) at a concentration of 0.5 ug with compound at 50 uM
Homo sapiens [44] = organism: Homo sapiens; assay: Mitogen-induced human lymphocyte proliferation measured by incorporation of [3H]thymidine in lymphocytes with Concanavalin A at a concentration of 0.5 ug with compound at 400 uM
Homo sapiens [45] = organism: Homo sapiens; assay: Mitogen-induced human lymphocyte proliferation measured by incorporation of [3H]thymidine in lymphocytes with Phytohemagglutininin at a concentration of 0.25 ug with compound at 10 uM
Homo sapiens [46] = organism: Homo sapiens; assay: Mitogen-induced human lymphocyte proliferation measured by incorporation of [3H]thymidine in lymphocytes with Phytohemagglutininin at a concentration of 0.25 ug with compound at 1 uM
Homo sapiens [47] = organism: Homo sapiens; assay: Mitogen-induced human lymphocyte proliferation measured by incorporation of [3H]thymidine in lymphocytes with Phytohemagglutininin at a concentration of 0.25 ug with compound at 400 uM
Homo sapiens [48] = organism: Homo sapiens; assay: Mitogen-induced human lymphocyte proliferation measured by incorporation of [3H]thymidine in lymphocytes with Phytohemagglutininin at a concentration of 0.25 ug with compound at 50 uM
Homo sapiens [49] = organism: Homo sapiens; assay: Mitogen-induced human lymphocyte proliferation measured by incorporation of [3H]-thymidine in lymphocytes with Phytohemagglutininin at a concentration of 0.25 ug with compound at 0.1 uM

## Nc1nc(O)c2c(C(=O)O)cn(C3O[C@H](CO)[C@@H](O)[C@H]3O)c2n1 (some centres undefined)
Homo sapiens [1]
  Incorporation: 51152
Homo sapiens [2]
  Incorporation: 54392
Homo sapiens [3]
  Incorporation: 53594
Homo sapiens [4]
  Incorporation: 14118
Homo sapiens [5]
  Incorporation: 50597
Homo sapiens [6]
  Incorporation: 52418
Homo sapiens [7]
  Incorporation: 47896
Homo sapiens [8]
  Incorporation: 43600
Homo sapiens [9]
  Incorporation: 44790
Homo sapiens [10]
  Incorporation: 10034
Homo sapiens [11]
  Incorporation: 42735
Homo sapiens [12]
  Incorporation: 40053
Homo sapiens [13]
  Incorporation: 38824
Homo sapiens [14]
  Incorporation: 42486
Homo sapiens [15]
  Incorporation: 45537
Homo sapiens [16]
  Incorporation: 55547
Homo sapiens [17]
  Incorporation: 36835
Homo sapiens [18]
  Incorporation: 40349
Homo sapiens [19]
  Incorporation: 43757
Homo sapiens [20]
  Incorporation: 42670
Homo sapiens [21]
  Incorporation: 9782
Homo sapiens [22]
  Incorporation: 13682
Homo sapiens [23]
  Incorporation: 17242
Homo sapiens [24]
  Incorporation: 14865
Homo sapiens [25]
  Incorporation: 1268
Homo sapiens [26]
  Incorporation: 15707
Homo sapiens [27]
  Incorporation: 15708
Homo sapiens [28]
  Incorporation: 45121
Homo sapiens [29]
  Incorporation: 42403
Homo sapiens [30]
  Incorporation: 12990

## Nc1nc2c(c(C(=O)N[C@@H](CCC(=O)O)C(=O)O)nn2C2O[C@H](CO)[C@@H](O)[C@H]2O)c(=O)[nH]1 (some centres undefined)
Homo sapiens [31]
  Incorporation: 6506
Homo sapiens [32]
  Incorporation: 50830
Homo sapiens [33]
  Incorporation: 51918
Homo sapiens [34]
  Incorporation: 49105
Homo sapiens [35]
  Incorporation: 56187
Homo sapiens [36]
  Incorporation: 40443
Homo sapiens [37]
  Incorporation: 53140
Homo sapiens [13]
  Incorporation: 49176
Homo sapiens [15]
  Incorporation: 50330
Homo sapiens [16]
  Incorporation: 44427
Homo sapiens [17]
  Incorporation: 50246
Homo sapiens [18]
  Incorporation: 56641
Homo sapiens [38]
  Incorporation: 49556
Homo sapiens [39]
  Incorporation: 43786
Homo sapiens [40]
  Incorporation: 49196
Homo sapiens [41]
  Incorporation: 26393
Homo sapiens [42]
  Incorporation: 47573
Homo sapiens [43]
  Incorporation: 41114
Homo sapiens [44]
  Incorporation: 45681
Homo sapiens [45]
  Incorporation: 16224
Homo sapiens [46]
  Incorporation: 12995
Homo sapiens [47]
  Incorporation: 13781
Homo sapiens [48]
  Incorporation: 14187
Homo sapiens [49]
  Incorporation: 8002

— ChEMBL document CHEMBL1124696, “Nucleoside peptides. 10. Synthesis and T-cell immunostimulatory properties of certain peptide derivatives of 6-azacadeguomycin” (1989)
